Assay [1] has as its target T1, 5-hydroxytryptamine receptor 1A (Homo sapiens) (UniProt P08908).
T1 sequence (whole entry): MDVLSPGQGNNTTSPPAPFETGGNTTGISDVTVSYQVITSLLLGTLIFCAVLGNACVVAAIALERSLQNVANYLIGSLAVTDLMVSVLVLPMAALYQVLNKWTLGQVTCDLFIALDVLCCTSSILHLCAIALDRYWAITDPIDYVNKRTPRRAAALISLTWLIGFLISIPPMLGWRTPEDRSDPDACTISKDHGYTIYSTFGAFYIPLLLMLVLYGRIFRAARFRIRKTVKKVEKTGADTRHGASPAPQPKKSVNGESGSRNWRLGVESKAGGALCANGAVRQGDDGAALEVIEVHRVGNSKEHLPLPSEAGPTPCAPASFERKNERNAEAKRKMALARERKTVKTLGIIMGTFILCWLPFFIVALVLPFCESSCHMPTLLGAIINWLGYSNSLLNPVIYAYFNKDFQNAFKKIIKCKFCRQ
Put plainly: Percent efficacy against human 5-hydroxytryptamine 1A receptor relative to maximal 5-HT response. The class given is functional.

The target in assay [2] is T2, 5-hydroxytryptamine receptor 1A (Homo sapiens, UniProt P08908).
T2 sequence (P08908 whole entry): T1 sequence (whole entry)
Put plainly: Stimulation of [35S]- GIPyS binding to cloned human 5-hydroxytryptamine 1A receptor stably expressed in HeLa cells. It is filed as cell-based.

In assay [3] the target is T2, 5-hydroxytryptamine receptor 1A. Briefly: Displacement of specific [3H]- 5-HT binding to cloned human 5-hydroxytryptamine 1A receptor stably expressed in HeLa cells. It is filed as cell-based.
The target in assay [4] is Sodium-dependent serotonin transporter (Rattus norvegicus, UniProt P31652). Briefly: Displacement of specific [3H]- citalopram binding to 5-HT uptake site in rat whole cortex.
Chain of Sodium-dependent serotonin transporter (P31652 whole entry): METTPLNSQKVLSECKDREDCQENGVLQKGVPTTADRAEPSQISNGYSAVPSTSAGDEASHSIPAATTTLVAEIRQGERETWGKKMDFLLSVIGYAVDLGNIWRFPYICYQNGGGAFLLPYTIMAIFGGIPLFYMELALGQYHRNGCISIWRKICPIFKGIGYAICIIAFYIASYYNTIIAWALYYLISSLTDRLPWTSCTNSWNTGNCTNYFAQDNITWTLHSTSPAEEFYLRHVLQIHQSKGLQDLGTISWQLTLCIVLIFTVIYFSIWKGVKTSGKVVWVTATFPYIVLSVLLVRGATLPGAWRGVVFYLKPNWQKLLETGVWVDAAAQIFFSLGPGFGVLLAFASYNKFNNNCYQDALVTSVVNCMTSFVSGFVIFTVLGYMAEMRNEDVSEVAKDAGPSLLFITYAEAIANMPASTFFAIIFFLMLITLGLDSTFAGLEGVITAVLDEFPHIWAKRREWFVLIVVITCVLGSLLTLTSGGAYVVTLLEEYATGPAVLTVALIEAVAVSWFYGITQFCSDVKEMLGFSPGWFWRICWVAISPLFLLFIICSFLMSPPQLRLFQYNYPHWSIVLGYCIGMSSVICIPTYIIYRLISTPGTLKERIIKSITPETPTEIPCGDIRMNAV
The target in assay [5] is T2, 5-hydroxytryptamine receptor 1A. Put plainly: Stimulation of [35S]- […] binding to cloned human 5-hydroxytryptamine 1A receptor stably expressed in HeLa cells; Inverse. It is filed as cell-based.
In assay [6] the target is T1, 5-hydroxytryptamine receptor 1A (Homo sapiens). Briefly: Percent efficacy against cloned human 5-hydroxytryptamine 1A receptor normalized to the maximal 5-HT response. The class given is functional.

Structures are written as SMILES.

Regarding `CC(C)NCC(O)COc1cccc2[nH]ccc12` (stereo not drawn), in assay [1], the Efficacy turned out to be 36%.

One may read the EC50 as the midpoint of the concentration-response curve. What is called Ki is the equilibrium dissociation constant of an inhibitor or competing ligand from its target. `CCc1cccc(OC[C@@H](O)CN2CCC3(CC2)OCc2c3ccc3ccccc23)c1` had an EC50 in assay [2] of 0.0033 µM. Moreover, in assay [1], the Efficacy was 61%. Moreover, the Ki in assay [3] was found to be 0.0017 µM; in assay [4], 0.087 µM.

`OC(COCc1ccccc1)CN1CCC2(CC1)OCc1c2ccc2ccccc12` (stereo not drawn) registered an EC50 in assay [2] of 0.031 µM. Besides, the Efficacy in assay [1] worked out at 108%. In addition, the Ki was found to be 0.0022 µM in assay [3] and 0.083 µM in assay [4].

`OC(COc1ccc(F)c2c1OCCC2)CN1CCC2(CC1)OCc1c2ccc2ccccc12` (stereo not drawn) came in with an EC50 in assay [2] of more than 10 µM. Moreover, the Ki is 0.0028 µM in assay [3] and 0.049 µM in assay [4].

On to `OC(CCc1ccccc1)CN1CCC2(CC1)OCc1c2ccc2ccccc12` (stereo not drawn), for which the EC50 in assay [2] turned out to be 0.037 µM. Further, the Efficacy in assay [1] was found to be 87%. Further, the figures for the Ki in assay [3] and in assay [4] were 0.0083 µM and 0.01 µM, respectively.

The compound `c1ccc(CCCCN2CCC3(CC2)OCc2c3ccc3ccccc23)cc1` had an EC50 in assay [2] of more than 10 µM. Further, the Ki in assay [3] stood at 0.072 µM; in assay [4], 0.028 µM.

Turning to `O[C@H](COc1ccccc1F)CN1CCC2(CC1)OCc1c2ccc2ccccc12`, in assay [2], a half-maximal effect (EC50) was put at 0.0011 µM. Further, in assay [1], the Efficacy is 100%. Besides, the Ki worked out at 0.001 µM in assay [3] and 0.052 µM in assay [4].

In turn, `O[C@@H](COc1ccccc1F)CN1CCC2(CC1)OCc1c2ccc2ccccc12` yielded an EC50 in assay [2] of 0.021 µM. The Efficacy in assay [1] was 92%. Also, the Ki in assay [3] amounted to 0.006 µM; in assay [4], 0.12 µM.

In the case of `O[C@H](COc1ccccc1)CN1CCC2(CC1)OCc1c2ccc2ccccc12`, the EC50 in assay [2] amounted to 0.0012 µM. The compound further gave an Efficacy in assay [1] of 81%. For the same compound, the Ki stood at 0.0011 µM in assay [3] and 0.05 µM in assay [4].

Take `OC(COc1cc(F)cc2c1OCCC2)CN1CCC2(CC1)OCc1c2ccc2ccccc12` (stereo not drawn): the EC50 entry in assay [5] is listed as “Inverse agonist”. Moreover, the Ki in assay [3] worked out at 0.0055 µM; in assay [4], 0.072 µM.

As to `O=C1CCc2c(F)ccc(OCC(O)CN3CCC4(CC3)OCc3c4ccc4ccccc34)c21` (stereo not drawn), in assay [2], the EC50 is 0.0035 µM. In assay [6], this compound gave an Efficacy of 65%. The Ki in assay [3] amounted to 0.0023 µM; in assay [4] it was 0.045 µM.

The values above are taken from ChEMBL document CHEMBL1131886 (Bioorg Med Chem Lett, 1999).
